This note sets out measurements from US7632855B2, “Pyrazole compounds as HSP90 inhibitors for the treatment of cancer” (Vernalis (Cambridge) Limited, priority 2003, dated 2009).

This assay addresses T1, human full-length HSP90 (Homo sapiens, UniProt P08238).
T1 construct: E. coli expressed human full-length HSP90 protein, purified >95%; made in house; host or cells: E. coli
The assay can be described thus: Fluorescence Polarisation Assay (competitive displacement of probe RBT0045864-FAM from HSP90). The format is binding. The settings on record: E. coli expressed human full-length Hsp90 200 nM; probe RBT0045864-FAM 80 nM; read-out: Hsp90 FP IC50. From the text:
Fluorescence Polarization Assay
Fluorescence polarization {also known as fluorescence anisotropy} measures the rotation of a fluorescing species in solution, where the larger molecule the more polarized the fluorescence emission. When the fluorophore is excited with polarized light, the emitted light is also polarized. The molecular size is proportional to the polarization of the fluorescence emission. The fluoroscein-labelled probe—RBT0045864-FAM—binds to HSP90 {full-length human, full-length yeast or N-terminal domain HSP90 } and the anisotropy {rotation of the probe-protein complex} is measured.
Compound is added to the assay plate, left to equilibrate and the anisotropy measured again. Any change in anisotropy is due to competitive binding of compound to HSP90, thereby releasing probe.
Chemicals are of the highest purity commercially available and all aqueous solutions are made up in AR water. • 1) Costar 96-well black assay plate #3915 • 2) Assay buffer of (a) 100 mM Tris pH7.4; (b) 20 mM KCl; (c) 6mM MgCl2. Stored at room temperature. • 3) BSA (bovine serum albumen) 10 mg/ml (New England Biolabs # B9001S) • 4) 20 mM RBT0045864 (pyrazole) in 100% DMSO stock concentration. Stored in the dark at RT. Made in-house, Kd^˜[…], depending on the protein used. Working concentration is 200 nM diluted in AR water and stored at 4° C. Final concentration in assay 80 nM. • 5) E. coli expressed human full-length HSP90 protein, purified >95% (see, e.g., Panaretou et al., EMBO J., Vol. 17, pp. 4829-4836, 1998) and stored in 50 μL aliquots at −80° C. Protocol • 1) Add 100 μl 1× buffer to wells 11A and 12A (=FP BLNK) • 2) Prepare assay mix—all reagents are kept on ice with a lid on the bucket as the probe is light-sensitive.
• 3) Aliquot 100 μl assay mix to all other wells • 4) Seal plate and leave in dark at room temp for 20 minutes to equilibrate Compound Dilution Plate—1×3 Dilution Series • 1) In a clear 96-well v-bottom plate—{# VWR 007/008/257} add 10 μl 100% DMSO to wells B1 to H11 • 2) To wells A1 to A11 add 17.5 μl 100% DMSO • 3) Add 2.5 μl cpd to A1. This gives 2.5 mM {50×} stock cpd—assuming cpds 20 mM. • 4) Repeat for wells A2 to A10. Control in columns 11 and 12. • 5) Transfer 5 μl from row A to row B—not column 12. Mix well. • 6) Transfer 5 μl from row B to row C. […] In column 11 {provides standard curve} only add compound B11-H11. Add 2 μl of 100 mM standard cpd to wells B12-H12 {is positive control}
The Z′ factor is calculated from zero controls and positive wells. It typically gives a value of 0.7-0.9.

Usually IC50 stands for the concentration at which inhibition is half-maximal.

T1 sequence (P08238 whole entry): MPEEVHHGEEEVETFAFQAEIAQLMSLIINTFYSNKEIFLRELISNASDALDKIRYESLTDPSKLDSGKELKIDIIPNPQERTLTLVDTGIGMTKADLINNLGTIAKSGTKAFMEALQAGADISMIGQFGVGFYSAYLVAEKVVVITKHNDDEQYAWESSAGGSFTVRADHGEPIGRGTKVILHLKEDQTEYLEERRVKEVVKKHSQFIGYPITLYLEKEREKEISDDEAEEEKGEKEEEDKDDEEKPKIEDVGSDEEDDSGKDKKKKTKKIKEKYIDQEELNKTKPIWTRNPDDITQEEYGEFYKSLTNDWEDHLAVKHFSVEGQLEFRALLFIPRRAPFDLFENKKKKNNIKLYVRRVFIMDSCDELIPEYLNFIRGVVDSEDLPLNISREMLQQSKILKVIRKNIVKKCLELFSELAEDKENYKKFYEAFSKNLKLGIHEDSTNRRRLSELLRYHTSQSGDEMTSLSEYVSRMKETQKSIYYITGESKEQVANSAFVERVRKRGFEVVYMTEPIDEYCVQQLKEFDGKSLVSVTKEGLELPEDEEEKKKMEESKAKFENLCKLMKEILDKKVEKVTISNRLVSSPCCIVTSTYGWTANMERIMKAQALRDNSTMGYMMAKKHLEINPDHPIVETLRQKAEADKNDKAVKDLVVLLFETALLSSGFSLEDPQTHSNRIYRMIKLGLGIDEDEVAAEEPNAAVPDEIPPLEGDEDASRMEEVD

Take `COC(=O)C(C)NC(=O)c1[nH]nc(-c2cc(Cl)c(O)cc2O)c1-c1ccc(OC)cc1` (stereo not shown) [Example 3]: the IC50 was less than 10 µM. Consider `COc1ccc(-c2c(-c3cc(Cl)c(O)cc3O)n[nH]c2C(=O)NC(C)C(=O)O)cc1` (stereo not shown) [Example 4], for which the IC50 is less than 10 µM. In the case of `COC(=O)CNC(=O)c1[nH]nc(-c2cc(Cl)c(O)cc2O)c1-c1ccc(OC)cc1` [Example 6] it was less than 10 µM. Regarding `COC(=O)[C@@H](C)NC(=O)c1[nH]nc(-c2cc(Cl)c(O)cc2O)c1-c1ccc(OC)cc1` [Example 7], the concentration for half-maximal inhibition (IC50) was less than 10 µM. The figure for `COC(=O)[C@H](C)NC(=O)c1[nH]nc(-c2cc(Cl)c(O)cc2O)c1-c1ccc(OC)cc1` [Example 8] is less than 10 µM. The figure for `COc1ccc(-c2c(-c3cc(Cl)c(O)cc3O)n[nH]c2C(=O)N[C@H](C)C(N)=O)cc1` [Example 9] is less than 10 µM. In the case of `COc1ccc(-c2c(-c3cc(Cl)c(O)cc3O)n[nH]c2C(=O)N[C@@H](C)C(N)=O)cc1` [Example 10] it was less than 10 µM. Consider `COc1ccc(-c2c(-c3cc(Cl)c(O)cc3O)n[nH]c2C(=O)N[C@H](C)C(=O)N2CCN(C)CC2)cc1` [Example 12], for which the IC50 is less than 10 µM. The figure for `CNC(=O)[C@@H](C)NC(=O)c1[nH]nc(-c2cc(Cl)c(O)cc2O)c1-c1ccc(OC)cc1` [Example 13] is less than 10 µM; for `COc1ccc(-c2c(-c3cc(Cl)c(O)cc3O)n[nH]c2C(=O)N[C@H](C)C(=O)NC(C)C)cc1` [Example 14] it is less than 10 µM; for `COc1ccc(-c2c(-c3cc(Cl)c(O)cc3O)n[nH]c2C(=O)N[C@H](C)C(=O)NCCN(C)C)cc1` [Example 15] it is less than 10 µM. The figure for `COc1ccc(-c2c(-c3cc(Cl)c(O)cc3O)n[nH]c2C(=O)N[C@H](C)C(=O)NCCN2CCOCC2)cc1` [Example 16] is less than 10 µM; for `CCNC(=O)[C@@H](C)NC(=O)c1[nH]nc(-c2cc(Cl)c(O)cc2O)c1-c1ccc(OC)cc1` [Example 18] it is less than 10 µM.
